Results on 27 molecules are retold here after patent US5578573A, “Viral integrase inhibiting peptides” (priority 1995, dated 1996).

In this experiment the target is T1, HIV integrase (Human immunodeficiency virus type 1 group M subtype B, UniProt P04585).
T1 construct: The HIV integrase used in these assays was expressed in E. coli; made in house; host or cells: E. coli
Description: biochemical. The format is biochemical. The note with it: for % Inhibition of HIV integrase activity: 50 μM peptide, results normalized to His-Cys-Lys-Phe-Trp-Trp-NH2 (SEQ ID NO: 19). As to the method: HIV integrase activity was assayed by site-specific cleavage and integration of a 28 base pair synthetic oligonucleotide substrate representing HIV-1 U5 essentially as described by Vink et al., Nucl. Acids Res. 21:1419-1425 (1993), which is incorporated herein by reference. The HIV integrase used in these assays was expressed in E. coli and purified to near homogeneity.
Briefly, 0.2 pmol 5'-^32 P-oligonucleotide substrate and 2 μM HIV integrase were incubated at 37° C. for 1 hr in 10 μl assay buffer (10 mM MOPS, pH 7.2, 50 mM NaCl, 3 mM MnCl2, 0.05 mM EDTA, 0.1 mM β-mercaptoethanol, 4% glycerol). Control integrase activity was determined in the absence of any peptide. The activity of a peptide to be tested was examined by adding the peptide to the appropriate concentration in a 2 μl volume. Reactions were stopped by addition of 10 μl formamide loading dye (95% formamide, 20 mM EDTA, 0.05% bromophenol blue, 0.05% xylene cyanol) and incubation at 80° C. for 3 min. A 5 μl aliquot of the sample was separated by electrophoresis on a 12% denaturing polyacrylamide gel. Migration was detected by autoradiography and integrase activity was quantified by densitometry. Inhibition of integrase activity by a peptide corresponded with the disappearance of the cleavage and integration products.

pIC50: −log10 of the molar value. Residues, ends and D or L forms follow the SMILES beside them.

Consider `C[C@H](NC(=O)[C@H](Cc1c[nH]c2ccccc12)NC(=O)[C@H](Cc1ccccc1)NC(=O)[C@H](CCCCN)NC(=O)[C@H](CS)NC(=O)[C@@H](N)Cc1c[nH]cn1)C(N)=O` [compound 2] (H-HCKFWA-NH2), for which the “% Inhibition of HIV integrase activity” value is 2%.
On to `N=C(N)NCCC[C@H](NC(=O)[C@H](Cc1c[nH]c2ccccc12)NC(=O)[C@H](Cc1ccccc1)NC(=O)[C@H](CCCCN)NC(=O)[C@H](CS)NC(=O)[C@@H](N)Cc1c[nH]cn1)C(N)=O` [compound 3] (H-HCKFWR-NH2), for which the pIC50 was 5.10 and the “% Inhibition of HIV integrase activity” value is reported as 88%.
With `NCCCC[C@H](NC(=O)[C@H](CS)NC(=O)[C@@H](N)Cc1c[nH]cn1)C(=O)N[C@@H](Cc1ccccc1)C(=O)N[C@@H](Cc1c[nH]c2ccccc12)C(=O)N[C@@H](CC(N)=O)C(N)=O` [compound 4] (H-HCKFWN-NH2), the “% Inhibition of HIV integrase activity” value is 30%.
The same measure, in the same setting: under `NCCCC[C@H](NC(=O)[C@H](CS)NC(=O)[C@@H](N)Cc1c[nH]cn1)C(=O)N[C@@H](Cc1ccccc1)C(=O)N[C@@H](Cc1c[nH]c2ccccc12)C(=O)N[C@@H](CC(=O)O)C(N)=O` [compound 5] (H-HCKFWD-NH2) stands 18%; under `NCCCC[C@H](NC(=O)[C@H](CS)NC(=O)[C@@H](N)Cc1c[nH]cn1)C(=O)N[C@@H](Cc1ccccc1)C(=O)N[C@@H](Cc1c[nH]c2ccccc12)C(=O)N[C@@H](CS)C(N)=O` [compound 6] (H-HCKFWC-NH2), 30%.
Same read-out and setting: under `NCCCC[C@H](NC(=O)[C@H](CS)NC(=O)[C@@H](N)Cc1c[nH]cn1)C(=O)N[C@@H](Cc1ccccc1)C(=O)N[C@@H](Cc1c[nH]c2ccccc12)C(=O)N[C@@H](CCC(=O)O)C(N)=O` [compound 7] (H-HCKFWE-NH2) stands 28%; under `NCCCC[C@H](NC(=O)[C@H](CS)NC(=O)[C@@H](N)Cc1c[nH]cn1)C(=O)N[C@@H](Cc1ccccc1)C(=O)N[C@@H](Cc1c[nH]c2ccccc12)C(=O)N[C@@H](CCC(N)=O)C(N)=O` [compound 8] (H-HCKFWQ-NH2), 8%; under `NCCCC[C@H](NC(=O)[C@H](CS)NC(=O)[C@@H](N)Cc1c[nH]cn1)C(=O)N[C@@H](Cc1ccccc1)C(=O)N[C@@H](Cc1c[nH]c2ccccc12)C(=O)NCC(N)=O` [compound 9] (H-HCKFWG-NH2), 82%.
Turning to `NCCCC[C@H](NC(=O)[C@H](CS)NC(=O)[C@@H](N)Cc1c[nH]cn1)C(=O)N[C@@H](Cc1ccccc1)C(=O)N[C@@H](Cc1c[nH]c2ccccc12)C(=O)N[C@@H](Cc1c[nH]cn1)C(N)=O` [compound 10] (H-HCKFWH-NH2), the “% Inhibition of HIV integrase activity” value stood at 72%.
Take `CC[C@H](C)[C@H](NC(=O)[C@H](Cc1c[nH]c2ccccc12)NC(=O)[C@H](Cc1ccccc1)NC(=O)[C@H](CCCCN)NC(=O)[C@H](CS)NC(=O)[C@@H](N)Cc1c[nH]cn1)C(N)=O` [compound 11] (H-HCKFWI-NH2): the negative logarithm of the IC50 (pIC50) was 5.40 and the “% Inhibition of HIV integrase activity” value came out at 96%.
In the case of `CC(C)C[C@H](NC(=O)[C@H](Cc1c[nH]c2ccccc12)NC(=O)[C@H](Cc1ccccc1)NC(=O)[C@H](CCCCN)NC(=O)[C@H](CS)NC(=O)[C@@H](N)Cc1c[nH]cn1)C(N)=O` [compound 12] (H-HCKFWL-NH2), the “% Inhibition of HIV integrase activity” value is listed as 8%.
The same measure, in the same setting: under `NCCCC[C@H](NC(=O)[C@H](Cc1c[nH]c2ccccc12)NC(=O)[C@H](Cc1ccccc1)NC(=O)[C@H](CCCCN)NC(=O)[C@H](CS)NC(=O)[C@@H](N)Cc1c[nH]cn1)C(N)=O` [compound 13] (H-HCKFWK-NH2) stands 34%; under `CSCC[C@H](NC(=O)[C@H](Cc1c[nH]c2ccccc12)NC(=O)[C@H](Cc1ccccc1)NC(=O)[C@H](CCCCN)NC(=O)[C@H](CS)NC(=O)[C@@H](N)Cc1c[nH]cn1)C(N)=O` [compound 14] (H-HCKFWM-NH2), 42%.
As for `NCCCC[C@H](NC(=O)[C@H](CS)NC(=O)[C@@H](N)Cc1c[nH]cn1)C(=O)N[C@@H](Cc1ccccc1)C(=O)N[C@@H](Cc1c[nH]c2ccccc12)C(=O)N[C@@H](Cc1ccccc1)C(N)=O` [compound 15] (H-HCKFWF-NH2), the pIC50 was 5.30 and the “% Inhibition of HIV integrase activity” value is listed as 95%.
As for `NCCCC[C@H](NC(=O)[C@H](CS)NC(=O)[C@@H](N)Cc1c[nH]cn1)C(=O)N[C@@H](Cc1ccccc1)C(=O)N[C@@H](Cc1c[nH]c2ccccc12)C(=O)N1CCC[C@H]1C(N)=O` [compound 16] (H-HCKFWP-NH2), the “% Inhibition of HIV integrase activity” value came out at 45%.
Regarding `NCCCC[C@H](NC(=O)[C@H](CS)NC(=O)[C@@H](N)Cc1c[nH]cn1)C(=O)N[C@@H](Cc1ccccc1)C(=O)N[C@@H](Cc1c[nH]c2ccccc12)C(=O)N[C@@H](CO)C(N)=O` [compound 17] (H-HCKFWS-NH2), the “% Inhibition of HIV integrase activity” value came out at 40%.
Same read-out and setting: under `C[C@@H](O)[C@H](NC(=O)[C@H](Cc1c[nH]c2ccccc12)NC(=O)[C@H](Cc1ccccc1)NC(=O)[C@H](CCCCN)NC(=O)[C@H](CS)NC(=O)[C@@H](N)Cc1c[nH]cn1)C(N)=O` [compound 18] (H-HCKFWT-NH2) stands 8%; under `NCCCC[C@H](NC(=O)[C@H](CS)NC(=O)[C@@H](N)Cc1c[nH]cn1)C(=O)N[C@@H](Cc1ccccc1)C(=O)N[C@@H](Cc1c[nH]c2ccccc12)C(=O)N[C@@H](Cc1c[nH]c2ccccc12)C(N)=O` [compound 19] (H-HCKFWW-NH2), 100%.
Molecule `NCCCC[C@H](NC(=O)[C@H](CS)NC(=O)[C@@H](N)Cc1cnc[nH]1)C(=O)N[C@@H](Cc1ccccc1)C(=O)N[C@@H](Cc1c[nH]c2ccccc12)C(=O)N[C@@H](Cc1c[nH]c2ccccc12)C(N)=O` [compound 19] (H-HCKFWW-NH2) had a pIC50 of 5.70.
With `NCCCC[C@H](NC(=O)[C@H](CS)NC(=O)[C@@H](N)Cc1c[nH]cn1)C(=O)N[C@@H](Cc1ccccc1)C(=O)N[C@@H](Cc1c[nH]c2ccccc12)C(=O)N[C@@H](Cc1ccc(O)cc1)C(N)=O` [compound 20] (H-HCKFWY-NH2), the “% Inhibition of HIV integrase activity” value came to 75%.
Same read-out and setting: under `CC(C)[C@H](NC(=O)[C@H](Cc1c[nH]c2ccccc12)NC(=O)[C@H](Cc1ccccc1)NC(=O)[C@H](CCCCN)NC(=O)[C@H](CS)NC(=O)[C@@H](N)Cc1c[nH]cn1)C(N)=O` [compound 21] (H-HCKFWV-NH2) stands 85%.
Regarding `C[C@H](N)C(=O)N[C@@H](CS)C(=O)N[C@@H](CCCCN)C(=O)N[C@@H](Cc1ccccc1)C(=O)N[C@@H](Cc1c[nH]c2ccccc12)C(=O)N[C@@H](Cc1c[nH]c2ccccc12)C(N)=O` [compound 22] (H-ACKFWW-NH2), the pIC50 was 4.29.
The same measure, in the same setting: under `C[C@H](NC(=O)[C@@H](N)Cc1c[nH]cn1)C(=O)N[C@@H](CCCCN)C(=O)N[C@@H](Cc1ccccc1)C(=O)N[C@@H](Cc1c[nH]c2ccccc12)C(=O)N[C@@H](Cc1c[nH]c2ccccc12)C(N)=O` [compound 23] (H-HAKFWW-NH2) stands 4.52; under `C[C@H](NC(=O)[C@H](CS)NC(=O)[C@@H](N)Cc1c[nH]cn1)C(=O)N[C@@H](Cc1ccccc1)C(=O)N[C@@H](Cc1c[nH]c2ccccc12)C(=O)N[C@@H](Cc1c[nH]c2ccccc12)C(N)=O` [compound 24] (H-HCAFWW-NH2), 4.31; under `C[C@H](NC(=O)[C@H](CCCCN)NC(=O)[C@H](CS)NC(=O)[C@@H](N)Cc1c[nH]cn1)C(=O)N[C@@H](Cc1c[nH]c2ccccc12)C(=O)N[C@@H](Cc1c[nH]c2ccccc12)C(N)=O` [compound 25] (H-HCKAWW-NH2), 5.10.
On the same count and under the same terms, under `C[C@H](NC(=O)[C@H](Cc1ccccc1)NC(=O)[C@H](CCCCN)NC(=O)[C@H](CS)NC(=O)[C@@H](N)Cc1c[nH]cn1)C(=O)N[C@@H](Cc1c[nH]c2ccccc12)C(N)=O` [compound 26] (H-HCKFAW-NH2) stands 3.82; under `C[C@H](NC(=O)[C@H](Cc1c[nH]c2ccccc12)NC(=O)[C@H](Cc1ccccc1)NC(=O)[C@H](CCCCN)NC(=O)[C@H](CS)NC(=O)[C@@H](N)Cc1c[nH]cn1)C(N)=O` [compound 27] (H-HCKFWA-NH2), 3.68.
